This note sets out measurements from ChEMBL document CHEMBL5724914, “Linking interpersonal differences in gut microbiota composition and drug biotransformation activity” (2024).

Series [1] can be described thus: The drug is tested on Z-028 corresponding to mouse gut metagenome with ENA study accession number: PRJEB37062 and ENA sample accession number: ERS12561827 for biotransformation under anaerobic condition. The drug concentrations were measured over 9 timepoints collected between 0 and 24 hours of incubation by liquid-chromatography-coupled mass spectrometry (LC–MS). The following applies: 2 µM.

Series [2] can be described thus: The drug is tested on Z-026 corresponding to metagenome with ENA study accession number: PRJEB37062 and ENA sample accession number: ERS12561825 for biotransformation under anaerobic condition. The drug concentrations were measured over 9 timepoints collected between 0 and 24 hours of incubation by liquid-chromatography-coupled mass spectrometry (LC–MS). The following applies: 2 µM.

A short description of series [3]: The drug is tested on Z-024 corresponding to pig gut metagenome with ENA study accession number: PRJEB37062 and ENA sample accession number: ERS12561823 for biotransformation under anaerobic condition. The drug concentrations were measured over 9 timepoints collected between 0 and 24 hours of incubation by liquid-chromatography-coupled mass spectrometry (LC–MS). The following applies: 2 µM.

Series [4] in a line: The drug is tested on Z-023 corresponding to metagenome with ENA study accession number: PRJEB37062 and ENA sample accession number: ERS12561822 for biotransformation under anaerobic condition. The drug concentrations were measured over 9 timepoints collected between 0 and 24 hours of incubation by liquid-chromatography-coupled mass spectrometry (LC–MS). The following applies: 2 µM.

A short description of series [5]: The drug is tested on Z-021 corresponding to metagenome with ENA study accession number: PRJEB37062 and ENA sample accession number: ERS12561820 for biotransformation under anaerobic condition. The drug concentrations were measured over 9 timepoints collected between 0 and 24 hours of incubation by liquid-chromatography-coupled mass spectrometry (LC–MS). The following applies: 2 µM.

Series [6] in a line: The drug is tested on Z-018 corresponding to pig gut metagenome with ENA study accession number: PRJEB37062 and ENA sample accession number: ERS12561817 for biotransformation under anaerobic condition. The drug concentrations were measured over 9 timepoints collected between 0 and 24 hours of incubation by liquid-chromatography-coupled mass spectrometry (LC–MS). The following applies: 2 µM.

Series [7] is described as follows: The drug is tested on Z-009 corresponding to pig gut metagenome with ENA study accession number: PRJEB37062 and ENA sample accession number: ERS12561809 for biotransformation under anaerobic condition. The drug concentrations were measured over 9 timepoints collected between 0 and 24 hours of incubation by liquid-chromatography-coupled mass spectrometry (LC–MS). The following applies: 2 µM.

A short description of series [8]: The drug is tested on WLS-310 corresponding to human gut metagenome with ENA study accession number: PRJEB37062 and ENA sample accession number: ERS12561785 for biotransformation under anaerobic condition. The drug concentrations were measured over 9 timepoints collected between 0 and 24 hours of incubation by liquid-chromatography-coupled mass spectrometry (LC–MS). The following applies: 2 µM.

Series [9] in a line: The drug is tested on WLS-220 corresponding to human gut metagenome with ENA study accession number: PRJEB37062 and ENA sample accession number: ERS12561769 for biotransformation under anaerobic condition. The drug concentrations were measured over 9 timepoints collected between 0 and 24 hours of incubation by liquid-chromatography-coupled mass spectrometry (LC–MS). The following applies: 2 µM.

A short description of series [10]: The drug is tested on WLS-090 corresponding to human gut metagenome with ENA study accession number: PRJEB37062 and ENA sample accession number: ERS12561753 for biotransformation under anaerobic condition. The drug concentrations were measured over 9 timepoints collected between 0 and 24 hours of incubation by liquid-chromatography-coupled mass spectrometry (LC–MS). The following applies: 2 µM.

Series [11] in a line: The drug is tested on WLS-086 corresponding to human gut metagenome with ENA study accession number: PRJEB37062 and ENA sample accession number: ERS12561752 for biotransformation under anaerobic condition. The drug concentrations were measured over 9 timepoints collected between 0 and 24 hours of incubation by liquid-chromatography-coupled mass spectrometry (LC–MS). The following applies: 2 µM.

A short description of series [12]: The drug is tested on WLS-038 corresponding to human gut metagenome with ENA study accession number: PRJEB37062 and ENA sample accession number: ERS12561745 for biotransformation under anaerobic condition. The drug concentrations were measured over 9 timepoints collected between 0 and 24 hours of incubation by liquid-chromatography-coupled mass spectrometry (LC–MS). The following applies: 2 µM.

For series [13] the following is noted: human gut metagenome, 24 h, 2 µM.
The conditions of series [14]: human gut metagenome, 24 h, 2 µM. The source holds these as a separate data set.
The conditions of series [15]: human gut metagenome, 24 h, 2 µM. The source holds these as a separate data set.
The conditions of series [16]: human gut metagenome, 24 h, 2 µM. The source holds these as a separate data set.
The conditions of series [17]: human gut metagenome, 24 h, 2 µM. The source holds these as a separate data set.
The conditions of series [18]: human gut metagenome, 24 h, 2 µM. The source holds these as a separate data set.
For series [19] the following is noted: human gut metagenome, 24 h, 2 µM. The source holds these as a separate data set.
A short description of series [20]: The drug is tested on Z-010 corresponding to metagenome with ENA study accession number: PRJEB37062 and ENA sample accession number: ERS12561810 for biotransformation under anaerobic condition. The drug concentrations were measured over 9 timepoints collected between 0 and 24 hours of incubation by liquid-chromatography-coupled mass spectrometry (LC–MS). The following applies: 2 µM.
Also: call rule not given here.

On to `O=C1C(CC[S+]([O-])c2ccccc2)C(=O)N(c2ccccc2)N1c1ccccc1` (configuration not stated) [SULFINPYRAZONE], for which the “Bacterial Biotransformation” value in series [1] was “Compound metabolized”; in series [2] it was “Compound metabolized”; in [3] it was “Compound metabolized”; in series [4] it was “Compound metabolized”; in series [5], “Compound NOT metabolized”; in [6] it was “Compound metabolized”. Besides, the “Bacterial Biotransformation” value in series [7], in series [8], in series [9], in series [10], in series [11] and in [12] was “Compound metabolized” in each case. For the same compound, the “Bacterial Biotransformation” value in series [13], in series [14], in series [15], in series [16], in series [17] and in series [18] was “Compound metabolized” in each case. The “Bacterial Biotransformation” value in series [19] is recorded as “Compound metabolized”.
Take `CN1[C@@H]2CC[C@H]1C[C@@H](OC(=O)[C@H](CO)c1ccccc1)C2` [HYOSCYAMINE]: the “Bacterial Biotransformation” value in [1], in series [2], in [3], in [4], in [5] and in series [6] was “Compound NOT metabolized” in each case. The “Bacterial Biotransformation” value in [7], in series [8], in series [11] and in series [16] was “Compound metabolized” in each case.
On to `CCOC(=O)[C@H](CCc1ccccc1)N[C@@H](C)C(=O)N1CCC[C@H]1C(=O)O.O=C(O)/C=C\C(=O)O` [ENALAPRIL MALEATE], for which the “Bacterial Biotransformation” value in [1] is on record as “Compound NOT metabolized”; in series [2] it was “Compound NOT metabolized”; in [3], “Compound metabolized”; in [4], “Compound metabolized”; in series [5], “Compound metabolized”; in series [7], “Compound metabolized”. The “Bacterial Biotransformation” value in series [8], in series [9], in series [10], in [11], in series [12] and in series [13] was “Compound NOT metabolized” each time. Moreover, the “Bacterial Biotransformation” value in series [14], in series [15], in [16], in [17], in series [18] and in series [19] was “Compound NOT metabolized” in each case.
For `CSc1ccc2c(c1)C(N1CCN(C)CC1)Cc1ccccc1S2.O=C(O)/C=C\C(=O)O` (configuration not stated), the “Bacterial Biotransformation” value in series [1] is listed as “Compound NOT metabolized”; in series [2], “Compound NOT metabolized”; in series [3], “Compound metabolized”; in series [4], “Compound NOT metabolized”; in series [5] it was “Compound metabolized”; in [20], “Compound metabolized”. The “Bacterial Biotransformation” value in [7] is “Compound metabolized”; in [10] it was “Compound metabolized”; in [11], “Compound metabolized”; in [12], “Compound NOT metabolized”; in series [13], “Compound NOT metabolized”; in series [14], “Compound NOT metabolized”. The “Bacterial Biotransformation” value is listed as “Compound NOT metabolized” in [15], “Compound NOT metabolized” in series [17], “Compound NOT metabolized” in series [18] and “Compound metabolized” in series [19].
With `COc1ccc(Cc2nccc3cc(OC)c(OC)cc23)cc1OC` [PAPAVERINE], the “Bacterial Biotransformation” value in series [1] is “Compound NOT metabolized”; in [2] it was “Compound NOT metabolized”; in series [3], “Compound metabolized”; in [4], “Compound metabolized”; in [5], “Compound metabolized”; in series [6] it was “Compound metabolized”. Besides, the “Bacterial Biotransformation” value in series [7] was “Compound metabolized”; in series [8], “Compound metabolized”; in [9] it was “Compound metabolized”; in series [10], “Compound metabolized”; in series [11] it was “Compound metabolized”; in series [12], “Compound NOT metabolized”. In addition, the “Bacterial Biotransformation” value in series [13], in series [14], in series [15], in series [16], in series [17] and in [18] was “Compound metabolized” in each case. For the same compound, in series [19], the “Bacterial Biotransformation” value was “Compound metabolized”.
On to `Cc1ccc(NC(=O)c2ccc(CN3CCN(C)CC3)cc2)cc1Nc1nccc(-c2cccnc2)n1` [IMATINIB], for which the “Bacterial Biotransformation” value in series [1], in series [2], in [3], in [6], in series [20] and in series [7] was “Compound NOT metabolized” in each case.
For `CC(=O)OCC(CCn1cnc2cnc(N)nc21)COC(C)=O` [FAMCICLOVIR], the “Bacterial Biotransformation” value was “Compound metabolized” in series [1]; “Compound metabolized” in series [2]; “Compound metabolized” in series [3]; “Compound metabolized” in [4]; “Compound NOT metabolized” in series [5]; “Compound metabolized” in [20]. Besides, the “Bacterial Biotransformation” value in series [7], in [8], in series [9], in [10], in [11] and in series [12] was “Compound metabolized” each time. In addition, the “Bacterial Biotransformation” value in series [13], in series [14], in [15], in series [16], in [17] and in series [18] was “Compound metabolized” in each case. The “Bacterial Biotransformation” value in series [19] is recorded as “Compound metabolized”.
